Measured values as given in article PMC10399481, “Discovery and biological evaluation of novel CARM1/HDAC2 dual-targeting inhibitors with anti-prostate cancer agents” (Journal of Enzyme Inhibition and Medicinal Chemistry, 2023).
Entries after “also recorded” stand apart in the source; their conditions may differ. Where two headings read alike, the source gives them in different places.

Legend:
CARM1 = molecular target: T1, CARM1 (Homo sapiens, UniProt Q86X55); assay: In vitro CARM1 inhibition assay (3H-SAM, Flashplate); type: biochemical; settings: 30 min preincubation, pH 7.5
T1 construct: purchased Abcam (Cambridge, MA, USA)
T1 sequence (Q86X55 1-608): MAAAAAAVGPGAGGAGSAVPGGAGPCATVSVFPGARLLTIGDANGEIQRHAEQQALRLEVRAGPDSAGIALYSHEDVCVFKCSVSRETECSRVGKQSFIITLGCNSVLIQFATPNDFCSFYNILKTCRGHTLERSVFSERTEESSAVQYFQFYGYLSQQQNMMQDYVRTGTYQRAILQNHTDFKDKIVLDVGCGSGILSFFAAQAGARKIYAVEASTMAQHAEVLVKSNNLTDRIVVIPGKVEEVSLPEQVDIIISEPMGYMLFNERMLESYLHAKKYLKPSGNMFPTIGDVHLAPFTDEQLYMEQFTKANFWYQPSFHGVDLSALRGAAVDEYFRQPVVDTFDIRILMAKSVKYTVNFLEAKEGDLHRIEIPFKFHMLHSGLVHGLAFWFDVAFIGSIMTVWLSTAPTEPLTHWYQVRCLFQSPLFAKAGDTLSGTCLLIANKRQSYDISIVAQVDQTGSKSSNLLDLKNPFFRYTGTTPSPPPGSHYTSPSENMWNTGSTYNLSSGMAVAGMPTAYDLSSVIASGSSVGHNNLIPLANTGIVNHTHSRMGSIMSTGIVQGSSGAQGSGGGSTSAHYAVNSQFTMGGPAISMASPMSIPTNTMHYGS
Method: (§1) Hit compounds were purchased from WuXi AppTec.
In vitro CARM1 inhibition assays were conducted as previously described. Before the reaction began, CARM1 was preincubated with compounds for 30 min at room temperature. […] Assay was performed at the condition of pH 7.5. The assay was quenched through the addition of 300 µM unlabelled SAM. The quantity of ^3H-labeled peptide produced was measured by Flashplate on a Topcount reader.

HDAC2 = molecular target: T2, HDAC2 (Homo sapiens, UniProt Q92769); assay: In vitro HDAC2 inhibition assay (Boc-Lys(acetyl)-AMC fluorogenic); type: biochemical
T2 construct: purchased Abcam (Cambridge, MA, USA)
T2 sequence (Q92769 whole entry): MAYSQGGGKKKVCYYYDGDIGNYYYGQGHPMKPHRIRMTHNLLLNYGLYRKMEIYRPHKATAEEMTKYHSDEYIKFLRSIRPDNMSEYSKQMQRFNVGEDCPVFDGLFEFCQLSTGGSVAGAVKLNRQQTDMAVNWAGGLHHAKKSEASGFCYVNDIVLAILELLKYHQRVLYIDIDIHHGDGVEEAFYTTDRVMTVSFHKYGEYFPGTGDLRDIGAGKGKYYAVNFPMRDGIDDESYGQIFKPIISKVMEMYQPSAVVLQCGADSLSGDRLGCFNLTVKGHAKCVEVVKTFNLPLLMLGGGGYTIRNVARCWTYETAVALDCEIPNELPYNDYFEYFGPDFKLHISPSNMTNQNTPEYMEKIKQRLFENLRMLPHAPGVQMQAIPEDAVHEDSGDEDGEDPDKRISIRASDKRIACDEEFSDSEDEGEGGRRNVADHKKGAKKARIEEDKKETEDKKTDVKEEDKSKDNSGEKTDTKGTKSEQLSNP
Method: as §1
In vitro HDAC2 inhibition assays were performed as previously stated. Briefly, 50 µL of various concentrations of tested compounds were mixed with 10 µL of HDAC2 enzyme solution. After 5 min of 37 °C incubation, 40 µL of the luorogenic substrate Boc-Lys(acetyl)-AMC was added. The mixture was incubated at 37 °C for 30 min and stopped by adding 100 µL of developer containing trypsin and TSA. Then, fluorescence intensity was determined 20 min later at excitation and emission wavelengths of 390 and 460 nm, respectively, using a microplate reader. The IC50 values were determined by the GraphPad Prism 6 program based on a sigmoidal dose − response equation, and the inhibition rates were calculated using the fluorescence intensity readings of the tested wells in comparison to those of the control wells.

DU145 cells = assay: MTT cell growth assay, DU145; settings: for inhibition at 1 µM: DU-145, read-out: DU145 (% inhibition rate, 1 μM)
Method: (§2) The American Type Culture Collection (ATCC) (Manassas, VA, USA) provided the human cancer cell lines including DU145, RM-1, LAPC4, 22RV1, and PC-3, which was then cultured in Dulbecco’s modified Eagle’s medium (DMEM) with 1% penicillin-streptomycin and 10% foetal bovine serum (FBS) in a humidified environment with 5% CO2 at 37 °C.
(§3) Based on the experimental method published previously, cell lines were prepared in cell suspension (5 × 10^4 cells/mL) and seeded into a 96-well plate[59].

DU145 xenograft tumour = assay: In vivo anticancer activity, DU145 xenograft; set-up: species or system BALB/c nude mice; settings: 5, 10 and 20 mg/kg i.p., every four days, six times; dose-dependent
Method: The method of in vivo assay was described previously. We bought healthy female BALB/c nude mice from the animal experiment centre of Yangzhou University. All experiments involving animals were approved by the Animal Ethics Committee of China Pharmaceutical University. Mice were subcutaneously injected on the right flank with DU145 cells (200 µl, 1 × 10^7 cells). When tumour sizes reached 80–100 mm^3, mice were divided into four groups at random. Every four days for a total of six times, each group was injected intraperitoneally with the vehicle, CH-1 (5 mg/kg), CH-1 (10 mg/kg), and CH-1 (20 mg/kg). Tumour volume was measured every four days and calculated by the formula (c × c × d)/2 (c, the smallest diameter; d, the largest diameter).

RM-1 cells = assay: MTT cell growth assay, RM-1; settings: RM1, 72 h, read-out: RM-1 cell proliferation IC50
Method: as §2, §3

PC-3 cells = assay: MTT cell growth assay, PC-3; settings: Homo sapiens, PC-3, 72 h, read-out: PC-3 cell proliferation IC50
Method: The American Type Culture Collection (ATCC) (Manassas, VA, USA) provided the human cancer cell lines including DU145, RM-1, LAPC4, 22RV1, and PC-3, which was then cultured in Dulbecco’s modified Eagle’s medium (DMEM) with 1% penicillin-streptomycin and 10% foetal bovine serum (FBS) in a humidified environment with 5% CO2 at 37 °C. […] Hit compounds were purchased from WuXi AppTec.
as §3

LAPC4 cells = assay: MTT cell growth assay, LAPC4; settings: Homo sapiens, LAPC4, 72 h, read-out: LAPC4 cell proliferation IC50
Method: as §2, §3

22RV1 cells = assay: MTT cell growth assay, 22RV1; settings: Homo sapiens, 22Rv1, 72 h, read-out: 22RV1 cell proliferation IC50
Method: as §2, §3

[1] = tested on: multiple prostate-related tumour cells (DU145, RM-1, LAPC4, 22RV1, PC-3); assay: MTT cell growth assay, prostate cancer cell panel; settings: Homo sapiens, read-out: anti-proliferative IC50 against prostate-related tumour cells
Method: as §2, §3

[2] = 37 °C, 30 min, read-out: HDAC2 (IC50)

Row | Structure (SMILES) | IC50 (CARM1) | IC50 (HDAC2; [2]) | inhibition at 1 µM (DU145 cells; Homo sapiens) | also measured
1 | CNCCNCc1cccc(-c2nc(Nc3cccc(OCCCCCCC(=O)NO)c3)c(C)c(Oc3ccccc3)n2)c1 [CH-7] | 58.5 ± 3.21 nM | 24.8 ± 1.53 nM | 81% | –
2 | CNCCNCc1cccc(-c2nc(Nc3cccc(OCCCCCCC(=O)NO)c3)c(C)c(-c3cc4cccc(OC)c4[nH]3)n2)c1 [CH-4] | 25.5 ± 1.12 nM | 9.18 ± 0.17 nM | 92% | –
3 | CNCCNCc1cccc(-c2nc(Nc3cccc(OCCCCCCC(=O)NO)c3)c(C)c(-c3cccnc3)n2)c1 [CH-3] | 10.6 ± 0.93 nM | 5.83 ± 0.41 nM | 96% | –
4 | CNCCNCc1cccc(-c2nc(Cl)c(C)c(Nc3cccc(OCCCCCCC(=O)NO)c3)n2)c1 [CH-6] | 37.4 ± 1.65 nM | 13 ± 1.25 nM | 86% | –
5 | CNC[C@@H](O)COc1ccc(Cl)c(-c2nc(-c3c(C)noc3C)c(C)c(N3CC4(CCN(C(=O)OC)CC4)C3)n2)c1 [EZM2302, reference compound] | – | – | < 50% | HDAC2 (IC50, nM) (HDAC2; 37 °C, 30 min): no inhibition
6 | CNCCNCc1cccc(-c2nc(Nc3cccc(OCCCCCCC(=O)NO)c3)c(C)c(-c3ccnc4[nH]ccc34)n2)c1 [CH-1] | 3.71 ± 0.11 nM | – | 97% | IC50 (HDAC2): 4.07 ± 0.25 nM; tumour volume / tumour growth versus vehicle (DU145 xenograft tumour): significantly inhibited tumour growth; also recorded: significantly reduced; also recorded: significant antitumour activity; IC50 (RM-1 cells): 710 nM; IC50 (PC-3 cells): 430 nM; IC50 (DU145 cells; Homo sapiens, DU-145, 72 h, read-out: DU145 cell proliferation IC50): 90 nM; inhibitory activity on DU145 cells relative to vorinostat (DU145 cells; ratio of IC50 values): five times stronger; IC50 (LAPC4 cells): 680 nM; IC50 (22RV1 cells): 950 nM; IC50 [1]: < 1000 nM
7 | CNCCNCc1cccc(-c2nc(Nc3cccc(OCCCCCCC(=O)NO)c3)c(C)c(-c3c(C)noc3C)n2)c1 [CH-2] | 5.38 ± 0.54 nM | 8.33 ± 1.05 nM | 93% | –
8 | O=C(CCCCCCC(=O)Nc1ccccc1)NO [vorinostat, reference compound] | – | – | – | CARM1 (IC50, nM) (CARM1): no inhibitory effect; also recorded: no inhibition
9 | CNCCNCc1cccc(-c2nc(Nc3cccc(OCCCCCCC(=O)NO)c3)c(C)c(-c3cc4ccccc4s3)n2)c1 [CH-5] | 30.1 ± 2.02 nM | 17.3 ± 1.96 nM | 85% | –
